Literature values, collected in paper PMC6504684 (Frontiers in Pharmacology, 2019).

Columns and labels:
α9α10 nAChR = conditions: cited from earlier work
[1] = tested on: models of pain and inflammation; conditions: in vivo; cited from earlier work
rat α9α10 nAChR = conditions: cited from earlier work
GABAβ receptors = conditions: cited from earlier work

In the case of Vc1.1, the “selectivity for the α9α10 nAChR, in words” value (α9α10 nAChR) is given as “α9α10 selective”, the “analgesic and anti-inflammatory effects, in words” value [1] is given as “analgesic and anti-inflammatory effects” and the IC50 (rat α9α10 nAChR) is given as 0.019 µM. The “effects via GABAβ receptors, in words” value (GABAβ receptors) was “can also be transmitted via inhibition of GABAβ receptors”.
